The source of these data is US6624149B2, “Method for nucleic acid transfection of cells” (Genteric, Inc., priority 2000, dated 2003).

This experiment concerns rat salivary gland (submandibular gland). Kind of experiment: Intraductal transfection of rat salivary gland with pCMV.FOX.Luc-2, luciferase assay. The class given is in vivo. The procedure:
Nucleic acid/transition metal enhancer mixtures were prepared by sequentially adding deionized water or a buffered solution, DNA, and a desired transition metal enhancer to a polystyrene tube with mixing. “Free” (i.e., “Naked”) DNA controls were prepared by sequentially adding DNA to water or a buffered solution
Male Sprague-Dawley rats (260-280 g) were fasted the night prior to treatment. After administration of the anesthesia (see Section 6.1.3), both right and left salivary gland ducts (specifically, Wharton's duct) were cannulated with fine polyurethane tubing (i.d. 0.005″) and cemented into the desired location. Atropine was then administered subcutaneously (0.5 mg/kg) and, after eight minutes, 50 μl of the nucleic acid/transition metal enhancer mixture was injected, infused, instilled or administered at the ductal orifice or directly into the duct at any point along its length. See Goldfine, Nature Biotechnology 15:1378, 1997.
Regardless of whether a liposome/transition metal/nucleic acid mixture or a nucleic acid/transition metal enhancer mixture was delivered, the tubing and mixture was kept in place for ten additional minutes after application of the mixture prior to removal. At 48 hours post atropine administration, the rats were anesthetized by intraperitoneal injection of pentobarbital (50 mg/kg). The right and left submandibular glands were surgically removed, and the tissues were assayed for any observable reporter gene (luciferase of hGH) expression using the methods described below.
The presently claimed invention describes a new method using a combination of a transition metal enhancer and a nucleic acid of interest for gene delivery. The present invention provides a method which may enhance gene expression by improving the efficiency of gene delivery. This change in gene expression can be quantitated using various assays, such as the luciferase assay. de Wet et al., Molec. Cell Biol. 7:725, 1987. In various experiments described herein, the right and left submandibular glands were removed from the male Sprague-Dawley rats at 48 hours post administration of the pCMV.FOX.Luc-2 containing solution. In additional experiments other organs, such as the rat lungs, were used.
In experiments in which submandibular glands were tested, the amount of luciferase present in the right and left submandibular gland of each male Sprague-Dawley rat was measured independently and treated as separate, individual experiments (e.g., trials) because the amount of luciferase expressed by one submandibular gland is independent of the amount of luciferase expressed in the other submandibular gland. Therefore, each submandibular gland was independently lysed in lysis buffer (1.0 ml buffer per 0.1 g tissue) to create a lysis homogenate. The lysis buffer contained 100 mM K2PO4 pH 7.0, 1 mM dithiothreitol, and 1% Triton X-100. A 100 μl aliquot of lysis homogenate from each submandibular gland was analyzed for luciferase activity (de Wet et al., Molec. Cell Biol. 7:725, 1987) using a Monolight 2010 luminometer (Analytical Luminescence Laboratories). Accordingly, luciferase light emissions from each aliquot of the lysis homogenate were measured over a ten second period.
Activity was expressed as relative light units, values collectively representing the assay conditions, luciferase concentration, luminometer photomultiplier tube sensitivity and background. Using well known techniques, the luciferase light units may be converted, for example, to picograms of luciferase protein. See, e.g., Felgner et al., U.S. Pat. No. 5,580,899 at Example 13. All experiments were performed in duplicate. In experiments using submandibular glands, data from each individual submandibular gland lysis homogenate is reported as a single trial.

For the compound `O=S(=O)([O-])[O-].[Zn+2]` [ZnSO4, zinc sulfate], for the setting “Table 6, zinc 3.6 mM, 128 μg DNA in 50 μl, 48 hours”, the “Average relative light units” value was found to be 355676 relative light units.

Take `[Cl][Cu]` [Cu, cuprous chloride]: the “Average relative light units” value runs as follows: (Table 3, metal chloride 0.6 mM, 32 μg DNA in 50 μl, Tris-HCl/EDTA, 48 hours, eight glands) 17667 relative light units; (Table 3, metal chloride 0.9 mM, 32 μg DNA in 50 μl, Tris-HCl/EDTA, 48 hours, eight glands) 42204 relative light units; (Table 3, metal chloride 1.2 mM, 32 μg DNA in 50 μl, Tris-HCl/EDTA, 48 hours, eight glands) 17194 relative light units.

`CC(=O)[O-].CC(=O)[O-].[Zn+2]` [Zn(CH3CO2)2, zinc acetate]: the “Average relative light units” value (rat, in vivo) turned out to be 309965 relative light units.

In the case of `[Cl][Co][Cl]` [CoCl2, cobalt chloride], the “Average relative light units” value is, setting by setting: (Table 4, CoCl2 0.3 mM, 32 μg DNA in 50 μl, 48 hours) 37219 relative light units; (Table 4, CoCl2 0.9 mM, 32 μg DNA in 50 μl, 48 hours) 44926 relative light units.

As to `[Cl][Ni][Cl]` [Ni, nickel chloride], the “Average relative light units” value was determined as 18391 relative light units (Table 2, metal chloride 0.3 mM, 32 μg DNA in 50 μl, 48 hours, eight glands) and 65121 relative light units (Table 2, metal chloride 0.9 mM, 32 μg DNA in 50 μl, 48 hours, eight glands).
